Literature values as cited in paper PMC5742115, “Pharmacophore Modeling and in Silico/in Vitro Screening for Human Cytochrome P450 11B1 and Cytochrome P450 11B2 Inhibitors” (Frontiers in Chemistry, 2017).
Like-named read-outs stand apart in the source and are kept apart here.

Assays:
[1] = system: CYP11B1; conditions: cited from earlier work
[2] = system: CYP11B2; conditions: cited from earlier work
[3] = reported activity, supplementary Table 1, ref Hille et al., 2011b, read-out: CYP11B1 IC50
[4] = reported activity, supplementary Table 1, ref Hille et al., 2011b, read-out: CYP11B2 IC50
[5] = reported activity, supplementary Table 1, ref Ulmschneider et al., 2005b, read-out: CYP11B1 IC50
[6] = reported activity, supplementary Table 1, ref Ulmschneider et al., 2005b, read-out: CYP11B2 IC50
[7] = reported activity, supplementary Table 1, ref Lucas et al., 2011, read-out: CYP11B1 IC50
[8] = reported activity, supplementary Table 1, ref Lucas et al., 2011, read-out: CYP11B2 IC50
[9] = reported activity, supplementary Table 1, ref Yin et al., 2012, read-out: CYP11B1 IC50
[10] = reported activity, supplementary Table 1, ref Yin et al., 2012, read-out: CYP11B2 IC50
[11] = reported activity, supplementary Table 1, ref Roumen et al., 2010, read-out: CYP11B1 IC50
[12] = reported activity, supplementary Table 1, ref Roumen et al., 2010, read-out: CYP11B2 IC50
[13] = reported activity, supplementary Table 1, ref Pinto-Bazurco Mendieta et al., 2013, read-out: CYP11B1 IC50
[14] = reported activity, supplementary Table 1, ref Pinto-Bazurco Mendieta et al., 2013, read-out: CYP11B2 IC50
[15] = reported activity, supplementary Table 1, ref Emmerich et al., 2013, read-out: CYP11B1 IC50
[16] = reported activity, supplementary Table 1, ref Emmerich et al., 2013, read-out: CYP11B2 IC50

SMILES: Cc1cc(C)cc(Cn2ccnc2)c1 [CHEMBL1651494]
- IC50 [1, 3]: 32 nM
- IC50 [2, 4]: 77 nM

SMILES: Cc1cncc(Cc2ccc(-c3ccccc3)nc2)c1 [Compound 1]
- IC50 ([1]; Figure 2, ref Yin et al., 2012, Emmerich et al., 2013, Gobbi et al., 2016, read-out: hCYP11B1 IC50): 2 nM
- IC50 ([2]; Figure 2, ref Yin et al., 2012, Emmerich et al., 2013, Gobbi et al., 2016, read-out: hCYP11B2 IC50): 33 nM

SMILES: Clc1ccc2c(c1)CC/C2=C/c1c[nH]cn1 [CHEMBL175688]
- IC50 [1, 5]: 19.5 nM
- IC50 [2, 6]: 3.7 nM

SMILES: c1ccc(-c2ccc(Cn3ccnc3)cc2)cc1 [CHEMBL1235146]
- IC50 [1, 3]: 32 nM
- IC50 [2, 4]: 637 nM

SMILES: O=C1CCc2cc(-c3cncc(-c4cccc(F)c4)c3)cc3c2N1CC3 [CHEMBL1765221]
- IC50 [1, 7]: 490 nM
- IC50 [2, 8]: 1.4 nM

SMILES: C(=C1\CCc2ccccc21)/c1c[nH]cn1 [CHEMBL178036]
- IC50 [1, 5]: 6.1 nM
- IC50 [2, 6]: 11 nM

SMILES: CC(c1cc2c3c(c1)CCN3C(=O)CC2)n1ccnc1 (stereo not shown) [CHEMBL2163636]
- IC50 [1, 9]: 17 nM
- IC50 [2, 10]: 15 nM

SMILES: COc1cncc(-c2ccc3c(c2)CCC(=O)N3C)c1 [CHEMBL457856]
- IC50 ([1]; reported activity, supplementary Table 1, ref Lucas et al., 2008b, read-out: CYP11B1 IC50): 87 nM
- IC50 ([2]; reported activity, supplementary Table 1, ref Lucas et al., 2008b, read-out: CYP11B2 IC50): 0.2 nM

SMILES: N#Cc1ccc(Cn2cncc2-c2ccc(F)cc2)cc1 [CHEMBL598790]
- IC50 [1, 11]: 27 nM
- IC50 [2, 12]: 25 nM

SMILES: COc1cncc(-c2ccc3ccc(O)cc3c2Cl)c1 [CHEMBL2420682]
- IC50 [1, 13]: 245 nM
- IC50 [2, 14]: 15 nM

SMILES: c1ccc(-c2ccc(Cn3ccnc3)s2)cc1 [CHEMBL1651514]
- IC50 [1, 3]: 43 nM
- IC50 [2, 4]: 353 nM

SMILES: Oc1ccc2ccc(-c3cncc(F)c3)c(Cl)c2c1 [CHEMBL2420680]
- IC50 [1, 13]: 450 nM
- IC50 [2, 14]: 33 nM

SMILES: Cc1cccc(C(c2ccncc2)c2cc3c4c(c2)CCN4C(=O)CC3)c1 (stereo not shown) [CHEMBL2312962]
- IC50 ([1]; reported activity, supplementary Table 1, ref Yin et al., 2013, read-out: CYP11B1 IC50): 1340 nM
- IC50 ([2]; reported activity, supplementary Table 1, ref Yin et al., 2013, read-out: CYP11B2 IC50): 41 nM

SMILES: c1ccc(-c2ccc(Cc3cncc4ccccc34)cn2)cc1 [CHEMBL2417635]
- IC50 [1, 15]: 6 nM
- IC50 [2, 16]: 23 nM

SMILES: N#Cc1ccc2cc(-c3cccnc3)ccc2c1 [CHEMBL196796]
- IC50 ([1]; reported activity, supplementary Table 1, ref Voets et al., 2005, read-out: CYP11B1 IC50): 691 nM
- IC50 ([2]; reported activity, supplementary Table 1, ref Voets et al., 2005, read-out: CYP11B2 IC50): 3 nM

SMILES: c1ccc(Cn2cncc2-c2ccccc2)cc1 [CHEMBL463582]
- IC50 [1, 11]: 4.8 nM
- IC50 [2, 12]: 11 nM

SMILES: CCOc1cncc(-c2ccc3cc(OC)ccc3c2)c1 [CHEMBL445259]
- IC50 ([1]; reported activity, supplementary Table 1, ref Heim et al., 2008, read-out: CYP11B1 IC50): 373 nM
- IC50 ([2]; reported activity, supplementary Table 1, ref Heim et al., 2008, read-out: CYP11B2 IC50): 5.1 nM

SMILES: c1ccc(C(c2ccccc2)(c2ccccc2)n2ccnc2)cc1 [CHEMBL1651507]
- IC50 [1, 3]: 3 nM
- IC50 [2, 4]: 11 nM

SMILES: Cc1ccncc1Cc1ccc(-c2ccccc2)nc1 [CHEMBL2417637]
- IC50 [1, 15]: 8 nM
- IC50 [2, 16]: 19 nM

SMILES: Cc1cccc(-c2cncn2Cc2ccc(C#N)cc2)c1 [CHEMBL607862]
- IC50 [1, 11]: 6.2 nM
- IC50 [2, 12]: 5.2 nM

SMILES: COc1cccc2c1/C(=C/c1cccnc1)CC2 [CHEMBL175791]
- IC50 ([1]; reported activity, supplementary Table 1, ref Ulmschneider et al., 2005a, read-out: CYP11B1 IC50): 955 nM
- IC50 ([2]; reported activity, supplementary Table 1, ref Ulmschneider et al., 2005a, read-out: CYP11B2 IC50): 27 nM

SMILES: CCOc1cncc(-c2cc3c4c(c2)CCN4C(=O)CC3)c1 [CHEMBL1765209]
- IC50 [1, 7]: 158 nM
- IC50 [2, 8]: 1 nM

SMILES: O=C1CCc2cc(C(c3cccs3)n3ccnc3)cc3c2N1CC3 (stereo not shown) [CHEMBL2163651]
- IC50 [1, 9]: 13 nM
- IC50 [2, 10]: 18 nM

SMILES: CC(C)Oc1ccc(Cn2ccnc2)c2c(=O)c3ccccc3oc12 [CHEMBL2333331]
- IC50 ([1]; reported activity, supplementary Table 1, ref Gobbi et al., 2013, read-out: CYP11B1 IC50): 92.5 nM
- IC50 ([2]; reported activity, supplementary Table 1, ref Gobbi et al., 2013, read-out: CYP11B2 IC50): 19.1 nM

SMILES: O=C1CCc2cc(C(c3ccco3)n3ccnc3)cc3c2N1CC3 (stereo not shown) [CHEMBL2163650]
- IC50 [1, 9]: 20 nM
- IC50 [2, 10]: 47 nM

SMILES: N#Cc1ccc([C@@H]2CCCCc3cncn32)c(-c2ccc(F)cc2)c1 [Compound 4]
- IC50 ([1]; Figure 3, training compounds, ref Meredith et al., 2013, read-out: hCYP11B1 IC50): 0.4 nM
- IC50 ([2]; Figure 3, training compounds, ref Meredith et al., 2013, read-out: hCYP11B2 IC50): 0.3 nM

SMILES: Oc1cncc(Cc2ccc(-c3ccccc3)nc2)c1 [CHEMBL2417615]
- IC50 [1, 15]: 51 nM
- IC50 [2, 16]: 836 nM

SMILES: O=C1CCc2cc(-c3cncc(-c4cccc(C(F)(F)F)c4)c3)cc3c2N1CC3 [CHEMBL1765231]
- IC50 [1, 7]: 4650 nM
- IC50 [2, 8]: 33 nM

SMILES: OCCCc1cncn1Cc1ccc(Br)cc1 [CHEMBL598810]
- IC50 [1, 11]: 18 nM
- IC50 [2, 12]: 6.2 nM
